The target in this experiment is Protease (Human immunodeficiency virus 1) (UniProt Q9YQ12). In words: Inhibition of HIV1 recombinant protease expressed in Escherichia coli DH5alpha at 17.9 ug/mL after 2 hrs by HPLC assay.
Protease (Human immunodeficiency virus 1), sequence (Q9YQ12 as listed by the source): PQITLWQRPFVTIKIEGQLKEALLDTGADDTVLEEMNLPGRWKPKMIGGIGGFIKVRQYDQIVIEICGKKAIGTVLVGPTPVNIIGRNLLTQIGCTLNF

A word on the inhibition: it is the percentage by which the read-out fell short of the control. Regarding `CC1(C)CC[C@]2(C(=O)O)CC[C@]3(C)C(=CC[C@@H]4[C@@]5(C)C[C@@H](O)[C@H](O)C(C)(C)[C@@H]5CC[C@]43C)[C@@H]2C1`, the inhibition is 100%.

Take `C[C@@H]1CC[C@]2(C(=O)O)CC[C@]3(C)C(=CC[C@@H]4[C@@]5(C)C[C@@H](O)[C@H](O)C(C)(C)[C@@H]5CC[C@]43C)[C@@H]2[C@]1(C)O`: the inhibition was 49%.

`C[C@@H]1CC[C@]2(C(=O)O)CC[C@]3(C)C(=CC[C@@H]4[C@@]5(C)C[C@@H](O)[C@@H](O)C(C)(C)[C@@H]5CC[C@]43C)[C@@H]2[C@]1(C)O`: the inhibition was 0%.

`C[C@H]1[C@H](C)CC[C@]2(C(=O)O)CC[C@]3(C)C(=CC[C@@H]4[C@@]5(C)CC[C@H](O)C(C)(C)[C@@H]5CC[C@]43C)[C@H]12`: the inhibition stood at 85%.

Consider `C[C@@H]1CC[C@]2(C(=O)O)CC[C@]3(C)C(=CC[C@@H]4[C@@]5(C)C[C@@H](O)C(=O)C(C)(C)[C@@H]5CC[C@]43C)[C@@H]2[C@]1(C)O`, for which the inhibition stood at 72%.

`C[C@@H]1CC[C@]2(C(=O)O)CC[C@]3(C)C(=CC[C@@H]4[C@@]5(C)CC[C@@H](O)C(C)(C)[C@@H]5CC[C@]43C)[C@@H]2[C@]1(C)O`: the inhibition was found to be 42%.

The values are drawn from ChEMBL document CHEMBL1158228, “Anti-HIV triterpene acids from Geum japonicum” (J Nat Prod, 1996).
